The record followed here is publication PMC3126777, “Selective anticancer activity of a hexapeptide with sequence homology to a non-kinase domain of Cyclin Dependent Kinase 4” (Molecular Cancer, 2011).

Entries after “also recorded” stand apart in the source; their conditions may differ.

The test system of data set [1] is RT112 human bladder cancer cells. Nature of the data set: Time lapse photomicrography, RT112. Format: cell-based. Particulars: RT112, 200 μM THR53, Ham's F12 + 10% FCS. The method, then:
(§1) Progressive morphological changes in dying H460 cells exposed to 200 μM THR53 [additional file 1], contrasted with progressive cell division in untreated H460 cells [additional file 2] are shown as videos. Immortalised MRC5-hTERT fibroblasts, were unaffected by exposure to 200 μM THR53 except for some generalised slowing of growth (Figure 5A), [additional file 3] as compared to control, untreated, MRC5-hTERT cells [additional file 4]. RT112 cells were more sensitive to THR53 than H460 cells and died within 30 - 40 hours as compared to 96 hours for H460 and the majority of other human cancer cell lines investigated.
(§2) Figure 5 Time Lapse Photomicrography of MRC5-hTERT, RT112 human bladder cancer and […] human non-small cell lung cancer following exposure toTHR53. Cells were incubated in Ham's F12 + 10% FCS (control medium) or medium + 200 μM THR53. Morphological changes of vacuolation + cellar swelling are seen in RT112 at 33 hours after exposure to THR53 and in H460 at 90 hours after exposure to THR53. There was no evidence of cell blebbing or fragmentation. (see also videos)

For data set [2], the system named is H460 cells. Nature of the data set: Autophagy Assay (Cyto-ID Green, flow cytometry). The settings on record: H460, 100 μM, 72 h and 96 h. Format: cell-based, human. The method, then: Autophagy Assay was performed as recommended by the manufacturers' instructions (Enzo ENZ-51031-[…]). Briefly, H460 cells were seeded into 6 well plates at 2.5 × 10^5 and 1 × 10^5 cells/well. Immediately after cell plating, chloroquine or […] were added at the concentrations indicated. Following compound treatment, cells were washed once in PBS and resuspended in x1 Cyto-ID Green autophagy detection reagent and incubated at room temperature for 30 min. Immediately prior to analysis, propidium iodide (PI) solution was added to the cell suspension at a final concentration of 2.5 μg/ml, to assess cell death. Analysis was carried out using FACSCalibur (BD Biosciences). Cyto-ID Green autophagy reagent was measured in the FL-1 channel (530/30 nm bandpass filters with excitation at 488 nm) and PI measured in the FL-3 channel (670 nm longpass filters with excitation at 488 nm).

The test system of data set [3] is MCF-7 human breast cancer cells. Nature of the data set: Necrosis assay by Trypan Blue exclusion, MCF-7. The format is cell-based. The method, then: (§3) Necrosis Assay Cells were plated in triplicate in 96 well plates at concentrations of 500 cells per well (HT1299, MCF-7) or 1000 cells per well (H460, MRC5-hTERT) in the presence or absence of the relevant compound and assessed by Trypan Blue exclusion At 2,3,4 and 7 days after plating. To assay, cells were trypsinised off, stained with trypan blue in isotonic medium and live and dead cells separately counted visually by haemocytomter. Each data point is the mean of results from triplicate wells (Solid lines - Live cells, Broken lines - Dead Cells; Blue - Control, Red - THR53 200 μM).

Data set [4] deals with MRC5-hTERT immortalised fibroblasts. The data set can be described thus: Time lapse photomicrography, MRC5-hTERT. The settings on record: 200 μM; except for some generalised slowing of growth. The format is cell-based, human. The method, then: as §1, §2
The test system of data set [5] is H460 cells. Nature of the data set: Cell cycle phase distribution (DNA histograms). Format: cell-based, human. An excerpt: (§4) Cell death, however, was not dependent on cell division in MCF-7, RT112 or H460. […] had no effect on cell cycle phase distribution in H460 cells (Figure 6B) and […] hexapeptide cancer cell killing was unrelated to endogenous levels of Cdk4 or Cyclin D1. […] A. Macroscopic appearances of cycling […]-treated MCF-7 human breast cancer cells in medium + 10% FCS (left hand panels) compared to the same cells held outside the cell cycle in medium + 0.1%FCS (right hand panel) B. […] C. Sequential Western blots of Cdk1 and Cdk4 expression in RT112 human bladder cancer cells at 0 - 10 days after exposure to 5 mM linear, end-capped, […].

For data set [6], the system named is normal diploid human keratinocytes. The data set can be described thus: Morphological cytotoxicity in primary keratinocyte cultures. Format: cell-based. The settings on record: 200 μM THR53 (Figure 2B). The method, then:
The appearances of the disintegrating colonies in Figure 4B were not dissimilar to those of "starbursts" earlier reported in human in vitro cancer cell colonies undergoing spontaneous cell death. Table 5 lists 11 cell lines with complete response to 200 μM THR53. This relatively homogeneous therapeutic response to the same critical dose of THR53 markedly contrasts with the wide range of variability of in-vitro dose response of different cancer cell lines typically seen with conventional chemotherapeutic agents In addition to showing lack of toxicity towards normal human diploid fibroblasts, THR53 and related cyclic amphiphilic PRGPRP-containing peptides were not cytotoxic to normal diploid human keratinocytes growing as primary cultures (Figure 2B) or to MRC5-hTERT immortalised fibroblasts (Figures 4A and 5A).

The subject of data set [7] is H460 human non-small cell lung cancer cells. Nature of the data set: Time lapse photomicrography, H460. Format: cell-based. Particulars: H460, 200 μM THR53, Ham's F12 + 10% FCS. The method, then: as §1, §2
The subject of data set [8] is Cdk1 and Cdk4 expression in H460 human non-small cell lung cancer cells. Nature of the data set: Western blotting of Cdk1 and Cdk4 expression, H460. The format is cell-based. The settings on record: H460, 200 μM, 24 hours, Western blot. The text has this: This co-expression is unaffected by cytocidal doses of cisdiamminedichloroplatinum but can accompany spontaneous cancer cell death. Whether or not Cdk1/Cdk4 co-expression remained constant in cancer cells dying as a result of exposure to PRGPRP was thus examined by Western blotting.
All cell lines were from certified sources.
A general note: In western blotting, separated proteins are transferred to a membrane and probed.

For data set [9], the system named is H460 human non-small cell lung cancer cells. The data set can be described thus: Necrosis assay by Trypan Blue exclusion, H460. Format: cell-based. The method, then:
as §3

The subject of data set [10] is MCF7 breast cancer cells. Nature of the data set: Killing of cycling versus serum-deprived MCF-7 cells. The format is cell-based, human.
Description: as §4

The test system of data set [11] is NCI-H460 cells. The data set can be described thus: Total cellular protein (sulphorhodamine B assay). Format: cell-based, human. Particulars: H460, 100 μM THR53, up to 96 hours, sulphorhodamine B. The method, then:
Control medium/alamar blue were removed and 200 μl PBS was added. […] Wells were rinsed with water and allowed to air dry. Cells were then stained in 0.4% SRB solution, before rinsing with 1% acetic acid and air drying. Incorporated dye was solubilised in 10 mM Tris and absorbance measured at 565 nm and 690 nm. Absorbance measurements at 690 nm were subtracted from the 565 nm readings to correct for multi-well plate absorbance.
(In SRB staining, fixed cells bind dye roughly in proportion to their protein.)

Data set [12] deals with normal diploid human fibroblasts. Nature of the data set: In-vitro morphological cell viability screen, normal fibroblasts. Particulars: dose 200 μM. The format is cell-based.
Description: A broad search for possible biological activity associated with the [sequence] peptide sequence was initially instituted by screening human bladder cancer cell lines for potential in-vitro morphological changes, compared to control cultures of normal diploid human fibroblasts at 4-8 passages from primary culture as controls. […] The peptides were dissolved, over a range of concentrations, in Ham's F12 + 10% FCS and introduced in 100 μL quantities to microwells containing 500 RT112 bladder cancer cells, or normal diploid human fibroblasts, in 200 μL of Ham's F12 + 10% FCS plated 24 hours earlier on 96 well plates.
In data set [13] the test system is MRC5-hTERT immortalised fibroblasts. The data set can be described thus: Necrosis assay by Trypan Blue exclusion, MRC5-hTERT. Format: cell-based. The method, then: as §3
Data set [14] has as its system H1299 human non-small cell lung cancer cells. The data set can be described thus: Necrosis assay by Trypan Blue exclusion, H1299. Format: cell-based. The method, then:
as §3

Regarding “Cyc-[FPPRGPRPVKLALKLALK] (head to tail) [THR53, cyclic amphiphilic analogue, Cyc-[…]]”, the entries for the “time at which morphological changes of vacuolation + cellular swelling are seen” value in data set [1] and in data set [7] were 33 hours and 90 hours, respectively. In addition, the “time to cell death” value in [1] was 30 to 40 h; in data set [7] it was 96 h. The “autophagy, Cyto-ID Green mean fluorescent intensity compared with control” value in [2] was “no difference”. Also, the “day at which necrotic cells are initially detectable” value in [3] (MCF-7, 200 μM) stood at 3 days; in [9] (H460, 200 μM) it was 3 days; in data set [14] (H1299, 200 μM), 3 days. Besides, the “necrosis detected by trypan blue uptake” value in data set [3] (MCF-7, 200 μM, 2, 3, 4 and 7 days after plating, triplicate wells) is given as “induces necrosis”; in [9] (H460, 200 μM, 2, 3, 4 and 7 days after plating, triplicate wells) it was “induces necrosis”; in data set [14] (H1299, 200 μM, 2, 3, 4 and 7 days after plating, triplicate wells), “induces necrosis”. Besides, the “effect on MRC5-hTERT fibroblasts, time lapse” value in [4] is “unaffected”. Moreover, the “effect on cell cycle phase distribution” value in data set [5] is “no effect”. Moreover, the “cytotoxicity to normal diploid human keratinocytes” value in data set [6] is listed as “not cytotoxic”. Moreover, the Cdk4 expression entry in data set [8] is “complete disappearance”. Besides, the “effect on serum-deprived MCF7 cells” value in data set [10] (medium + 0.1%FCS, cells held outside the cell cycle) is recorded as “no effect”. Further, the “effect on cycling MCF-7 cells” value in data set [10] (medium +10% FCS) is “killed”. The total cellular protein result in data set [11] is listed as “without change”. Besides, the “Cell Viability Normal Diploid Fibroblasts” value in data set [12] was “+ + +”. Moreover, in data set [13] (200 μM (Figures 4A and 5A)), the “cytotoxicity to MRC5-hTERT immortalised fibroblasts” value is “not cytotoxic”. For the same substance, in data set [13] (MRC5-hTERT, 200 μM, 2, 3, 4 and 7 days after plating, triplicate wells), the “necrosis / viability by trypan blue exclusion” value is listed as “unaffected; also recorded: not in MRC5-h-TERT immortalised fibroblasts”.
